Reference: ChEMBL document CHEMBL5346896, “Development of indolealkylamine derivatives as potential multi-target agents for COVID-19 treatment” (Eur J Med Chem, 2023)

Tested on: SARS-CoV-2
Experiment: Antiviral activity against SARS-CoV-2 spike pseudotyped lentivirus infected in HEK293 cells expressing human ACE2 assessed as inhibition of viral entry into cells at highest concentration preincubated with cell for 1 hrs followed by viral infection for 1 hrs and further replaced with fresh medium and measured 48 hrs post transduction by luminescence based luciferase reporter assay relative to …
Assay type: functional, Severe acute respiratory syndrome coronavirus 2, HEK293T
Conditions: time 2 hrs

| SMILES | inhibition (INH) [%] |
| --- | --- |
| COc1ccc2[nH]c(C(O)c3ccc(Cl)cc3)c(CCNC(C)=O)c2c1 (configuration not stated) | 70 |
| COC(=O)NCCc1c(C(O)c2ccccc2)[nH]c2ccc(OC)cc12 (configuration not stated) | 70 |
